“Also recorded” adds a separate entry of the source.
Experiments:
RG2 glioma cells [1] = test: Autophagic flux assay: LC3-I to LC3-II conversion in the presence of bafilomycin-A1, western blot; assay type: cell-based, rat; settings: for stimulation of autophagy / autophagic flux (LC3-II increase in presence of bafilomycin-A1): 4 h, 50 nM bafilomycin-A1; for potency of autophagy stimulation relative to LKE (ratio of LC3-II band densities): western blot densitometry
Procedure: In the assay, cells are treated with subtoxic concentrations of bafilomycin-A, which blocks lysosomal acidification. This prevents autophagosome fusion with lysosomes at a specific point. […] Then, autophagy flux is measured by the conjugation of phosphatidylethanolamine to LC3-I, yielding an electrophoretically separable LC3-II. LC3-II acts as a link between nascent autophagosomes and cargo being directed into these structures. The autophagy intermediate protein LC3-II (a phosphatidylethanolamine-conjugated form of LC3-I) is measured by western blot. An autophagy enhancer will increase LC3-II in the presence of bafilomycin, whereas a compound that inhibits autophagy completion will not do so. Thus, the LC3A-I to LC3A-II conversion in the presence of bafilomycin-A1 constitutes a valid measure of autophagy.
Autophagy is a complex process involving many different protein components, but predominant amongst its regulatory elements are the mammalian target of rapamycin complex-1 (mTORC1) and unc-51-like kinase-1 (ULK1, FIG. 14). mTORC1 is itself a kinase that inhibits ULK1. When nutrients and cell energy are limiting, mTORC1 is suppressed by the coordinated actions of tuberous sclerosis complex (TSC) proteins 1 and 2 (TSC1/2) and Rheb (Ras homolog enriched in the brain). This allows disinhibition of ULK1, which then associates with beclin-1 protein to form pre-autophagosomal structures. Autophagosomes mature in a process marked by phosphatidylethanolamine conjugation to microtubule associated protein 1 light chain 3 (LC3-I→LC3-II conversion). After lysosomal fusion, the autophagy components are turned over and the cycle completes. One of the most reliable ways to determine whether a treatment increases true autophagy flux is to measure LC3-I to LC3-II conversion in the absence and presence of the vacuolar ATPase inhibitor bafilomycin-A1. Bafilomycin neutralizes lysosomal pH, preventing autophagosome-lysosomal fusion, and traps LC3-II at a point prior to its turnover in mature autophagolysosomes.
The cells were then incubated for an additional 4 h. At termination, the cell culture medium was removed, cells were washed with PBS and lysed on ice in Pierce RIPA buffer containing protease and phosphatase inhibitors.
An increase in the intensity of this band in the presence of bafilomycin-A1 indicates increased autophagic flux.
RG2 glioma cells (American Tissue Type Collection, ATTC, Rockville Md. USA) were treated for 4 h with 50 nM bafilomycin-A1 (previously dissolved to 1000× final concentration in dimethylsulfoxide). Thirty minutes after addition of bafilomycin, cells were treated with test agents at 100× final concentration. Cells were lysed in RIPA buffer containing protease and phosphatase inhibitors. Protein concentration was assayed and normalized to constant values (typically 5-7 mg/mL). Proteins were electrophoresed across 4-20% polyacrylamide gels and wet blotted onto polyvinylidine difluoride (PVDF) membranes. Proteins were blotted with commercially available antibodies against LC3.

[2] = Stability of the isolated solid under high vacuum; assay type: physicochemical; settings: isolated white solid, at least overnight
Procedure: FIGS. 15A-15B show the ^1H NMR spectrum of 2-butyl-LK-P, with and without peak assignments. FIGS. 16A-16B show the ^1H NMR spectrum of 2-butyl-LK-P, with integration values and with and without peak assignments. ^1H NMR (CDCl3) δ 3.96 (br. s., 1H), 3.05 (d, J=12.4 Hz, 1H), 2.84-2.66 (m, 1H), 2.36 (br. s., 2H), 1.56-1.32 (m, 2H), 1.24 (d, J=6.2 Hz, 2H), 0.89-0.77 (m, 3H); HRMS (ESI) m/z calcd for C9H17NO5PS [M+H]^+ 282.0565, found 282.0645.
Briefly, to a solution of DEIVP (500.0 mg, 2.222 mmol), in a biotage microwave vial, was added bromotrimethylsilane (1.333 mL, […]). The tube was purged with argon, covered and heated at 400 W for 10 min. The contents of the vial were transferred to a round bottom flask, the vial was washed with dichloromethane (3×3 mL) which was transferred to the flask. The solvent and excess bromotrimethylsilane were removed in vacuo. To the flask was added dichloromethane (10 mL), which was subsequently removed in vacuo to aid in the removal of any residual bromotrimethylsilane. To the flask was added dichloromethane (9 mL) and, to this solution, with stirring, was added a solution of bromine ([…]) in dichloromethane (3 mL). The resultant solution was heated to reflux for 15 min and the solvent was removed in vacuo. […]

C6 glioma tumor = settings: C6 glioma xenograft into rat cortices; cited from earlier work
CRMP2 = settings: CRMP2-dependent fashion; cited from earlier work
cells = settings: H2O2 or t-butyl hydroperoxide; cited from earlier work
ULK1 system = test: ULK1 / ULK1(p757) autophagy stimulation assay (mTOR pathway), western blot; assay type: cell-based, rat; settings: RG2 cells, 24 h; read-out: EC50 on the ULK1 system (ULK1 increase and ULK1(p757) decrease)
Source text: This technique has been documented in the literature for use in the comparison of the potency of individual compounds, relative to a recognized standard, and this technique has become a standard method of autophagy analysis. In addition to quantitating the stimulation of autophagy for the compounds, relative to LKE, because it is cell based, this assay also provides evidence that the compounds can permeate cell membranes. This affords valuable information for the comparison of individual compounds to stimulate autophagy, and will allow them to be ranked for use in the determination of a structure activity relationship (SAR). […] For validation purposes, a second, quantitative autophagy stimulation assay was utilized. […] This second assay provides validation for the LC3 assay.
Western Blotting: The proteins were electrophoresed and wet-blotted to polyvinylidine difluoride membranes, blocked overnight in 4% bovine serum albumin, and developed using antibodies obtained from Cell Signaling Technology (LC3A: cat #. 4599; ULK1: cat #. 8054, ULK1(p757): cat #. 6880).

[3] = tested on: SOD1^G93A mouse model of amyotrophic lateral sclerosis; settings: cited from earlier work
neurons = settings: glutamate toxicity; cited from earlier work
[4] = cell systems and C. elegans; cited from earlier work
[5] = tested on: 3×Tg-AD mouse model of Alzheimer's disease; settings: cited from earlier work
[6] = measurement of brain LKE levels and animal studies
SHSY5Y neurons = settings: cited from earlier work
[7] = tested on: permanent middle cerebral artery occlusion (pMCAO); settings: after pMCAO; cited from earlier work
microglia = settings: cell systems; cited from earlier work
EOC-20 microglia = test: TNFα-stimulated microglial M1 activation, nitrite accumulation in culture medium; assay type: cell-based; settings: cytokine (TNFα)-stimulated EOC-20 microglia, side-by-side
Procedure: Reaction completion was monitored by thin-layer chromatography and product identity was confirmed by mass spectrometry (FIG. 31A). […] M1 activation of EOC-20 cells was assessed by measuring TNFα-stimulated nitrite production.

RG2 glioma cells [8] = test: Proliferative capacity of glioma cells, tetrazolium reduction assay; assay type: cell-based, rat
Procedure: FIG. 37: Graph showing a reduction in proliferative capacity of RG2 glioma cells exposed to 2-n-hexyl-LKE-P. Glioma cells were plated at low density and treated with the indicated concentration of compound for 24 or 48 h, at which time relative cell number was estimated using a tetrazolium reduction assay.
Biomarkers of autophagy have been positively correlated with relatively better prognosis (longer patient lifespan) in humans suffering from high grade glioma. Accordingly, phosphonate analogs were tested for ability to reduce replicative capacity in RG2 glioma cells wherein the compounds increase autophagy. Cells were plated at low density (approximately 25,000 cells/[…]) using general cell culture methods, and treated with logarithmic dilutions of test agent. After 24 or 48 hours, cell number was estimated by a tetrazolium reduction assay using a commercially available kit (Promega Aqueous OneStep™). […] By 48 h the cells had largely achieved confluence and became somewhat contact inhibited, thus reducing the difference between control and treatment groups.

With `CCCCC1=C(P(=O)(O)O)N[C@H](C(=O)O)CS1` the “stimulation of autophagy / autophagic flux (LC3-II increase in presence of bafilomycin-A1)” value (RG2 glioma cells [1]) was “enter into cells and stimulate autophagy to varying degrees”, the “potency of autophagy stimulation relative to LKE (ratio of LC3-II band densities)” value (RG2 glioma cells [1]) was “comparable activity” and the “potency of autophagy stimulation relative to LKE (ratio of LC3-II band densities)” value (RG2 glioma cells [1]; listed as 2-butyl-LK-P) was “more effective at inducing autophagic flux than, inter alia, LK-E”. For the same compound, the “stability to high vacuum pressures” value [2] was “stable to high vacuum pressures at least overnight without visual or spectral decomposition”.

For `CCOC(=O)C1CSC=C(C(=O)O)N1` (stereo not shown) [LKE, lanthionine ketimine-ethyl ester], the tumor growth (C6 glioma tumor) is given as “slows growth of C6 glioma tumor”, the “stimulation of autophagy / autophagic flux (LC3-II increase in presence of bafilomycin-A1)” value (RG2 glioma cells [1]) is given as “enter into cells and stimulate autophagy to varying degrees” and the neurotrophic activity (CRMP2) is given as “potentiating growth factor-dependent neurite growth”. For the same compound, the antioxidant activity (cells) was “protecting cells against H2O2 or t-butyl hydroperoxide”, the EC50 (ULK1 system) was ~50 nM and the “lifespan and motor function” value [3] was “increases lifespan and slows decline of motor function”. For the same compound, the anti-excitotoxin activity (neurons) was “protecting neurons from glutamate toxicity”, the axonal transport enhancement [4] was “potentiating anterograde trafficking and delivery of synaptic proteins to the distal axon” and the “amyloid burden, phospho-tau, microglial activation, cognitive decline” value [5] was “decreases amyloid burden inside neurons and in plaques, decreases phospho-tau accumulation, decreases microglial activation, and slows cognitive decline”. The βββ penetrability [6] was “good βββ penetrability”, the amyloid reducing activity (SHSY5Y neurons) was “decreasing production of native Aβ(1-40)” and the “infarct volume and functional recovery” value [7] was “decreases infarct volume and improves functional recovery”. For the same compound, the anti-neuroinflammatory activity (microglia) was “decreasing microglial response to inflammatory cytokines”.

With `O=C(O)C1=CSC[C@@H](C(=O)O)N1` [LK, (5R)-3,5,-dicarboxy-1-thia-4-aza-2-cyclohexene, reference compound] the “stimulation of autophagy / autophagic flux (LC3-II increase in presence of bafilomycin-A1)” value (RG2 glioma cells [1]) was “increase autophagic flux”.

With `CC(C)C1=C(P(=O)(O)O)NCCS1` [2-isopropyl AECK-P, AminoEthyl Cysteine Ketimine-Phosphonate] the “stimulation of autophagy / autophagic flux (LC3-II increase in presence of bafilomycin-A1)” value (RG2 glioma cells [1]) was “can enter cells to elicit a response” and the “potency of autophagy stimulation relative to LKE (ratio of LC3-II band densities)” value (RG2 glioma cells [1]) was “comparable activity”.

With `CCOC(=O)[C@@H]1CSC(C(C)N2CCCC2=O)=C(C(=O)O)N1` (single isomer, unassigned) [NVP-LKE] the “stimulation of autophagy / autophagic flux (LC3-II increase in presence of bafilomycin-A1)” value (RG2 glioma cells [1]) was “stimulates autophagy in RG2 cells”, the “potency of autophagy stimulation relative to LKE (ratio of LC3-II band densities)” value (RG2 glioma cells [1]) was “better autophagy activation than LKE; also recorded: more potent autophagy stimulator than LKE” and the “suppression of nitric oxide (nitrite) production / microglial activation relative to LKE” value (EOC-20 microglia) was “maintains or gains potency over LKE; also recorded: equal or superior to LKE; also recorded: as potent or more potent than LKE”.

In the case of `CC(C)C1=C(P(=O)(O)O)N[C@H](C(=O)O)CS1` [2-isopropyl-LK-P, 2-isopropyl lanthionine ketimine phosphonate], the “stimulation of autophagy / autophagic flux (LC3-II increase in presence of bafilomycin-A1)” value (RG2 glioma cells [1]) is reported as “stimulates autophagy in RG2 cells at low micromolar concentrations; also recorded: enter into cells and stimulate autophagy to varying degrees; also recorded: increase autophagic flux”, the “potency on autophagic flux relative to LK” value (RG2 glioma cells [1]; at 10 μM) is reported as “clearly more potent at 10 μM than LK was” and the “potency on autophagic flux relative to LK” value (RG2 glioma cells [1]; at 10 mM (FIG. 6 legend)) is reported as “clearly was more potent at 10 mM than was LK”. The “potency of autophagy stimulation relative to LK” value (RG2 glioma cells [1]; visual inspection of western blot) was “much more potent stimulator of autophagy than LK”, the “potency of autophagy stimulation relative to LKE (ratio of LC3-II band densities)” value (RG2 glioma cells [1]) was “comparable activity” and the “stability to high vacuum pressures” value [2] was “stable to high vacuum pressures at least overnight without visual or spectral decomposition”.

In the case of `CCCCCCC1=C(P(=O)(O)O)N[C@H](C(=O)OCC)CS1` [2-n-hexyl-LKE-P], the cell number (RG2 glioma cells [8]; 48 h) is reported as “dose-dependent reduction in the cell number” and the replication of cultures (RG2 glioma cells [8]; first 24 h) is reported as “replicated more slowly”.

Reference: patent US11084836B2, “Compositions useful in therapy of autophagy-related pathologies, and methods of making and using the same” (The University of Toledo, priority 2016, dated 2021)
